From patent US12466849B2, “Anti-viral and anti-tumoral compounds” (YEDA RESEARCH AND DEVELOPMENT CO. LTD, priority 2020, dated 2025)

What was measured:
adenovirus-5 (Ad5) [1] = test system: adenovirus-5 (Ad5)
TCRV [2] = test system: TCRV
[3] = test system: Rift Valley fever virus (RVFV)
SARS-CoV [4] = test system: SARS-CoV
SARS-CoV-2 [5] = settings: SARS-CoV-2; SI = CC50/EC50
dengue virus-2 (DV-2) [6] = settings: DV-2; SI = CC50/EC50
[7] = test system: Japanese encephalitis virus (JEV)
Powassan virus (POWV) [8] = settings: POWV; SI = CC50/EC50
West Nile virus (WNV) [9] = test system: West Nile virus (WNV)
Yellow fever virus (YFV) [10] = test system: Yellow fever virus (YFV)
[11] = test system: Venezuelan equine encephalitis virus (VEEV)
Zika virus [12] = test system: Zika virus
influenza A(H1N1) [13] = test system: influenza A(H1N1)
influenza A(H5N1) [14] = test system: influenza A(H5N1)
Influenza B [15] = test system: Influenza B
RSV [16] = test system: RSV
poliovirus-1 (POV-1) [17] = test system: poliovirus-1 (POV-1)
enterovirus-68 (EV-68) [18] = test system: enterovirus-68 (EV-68)
in vitro [19] = settings: African green monkey
in vitro [20] = settings: human
in vitro [21] = settings: Syrian hamster
adenovirus-5 (Ad5) [22] = assay: organism not typed; settings: A549
poliovirus-1 (POV-1) [23] = assay: organism not typed; settings: Vero 76
enterovirus-68 (EV-68) [24] = assay: organism not typed; settings: RD
TCRV [25] = assay: microbe, parasite or virus in culture; settings: Mammarenavirus tacaribeense, Vero C1008
[26] = test system: Rift Valley fever virus (RVFV); assay: microbe, parasite or virus in culture; settings: Vero 76
SARS-CoV [27] = assay: microbe, parasite or virus in culture; settings: Severe acute respiratory syndrome coronavirus, Vero 76
SARS-CoV-2 [28] = assay: microbe, parasite or virus in culture; settings: Severe acute respiratory syndrome coronavirus 2, Vero 76
dengue virus-2 (DV-2) [29] = assay: microbe, parasite or virus in culture; settings: Huh-7
[30] = test system: Japanese encephalitis virus (JEV); assay: microbe, parasite or virus in culture; settings: Vero 76
Powassan virus (POWV) [31] = assay: microbe, parasite or virus in culture; settings: BHK-21
West Nile virus (WNV) [32] = assay: microbe, parasite or virus in culture; settings: Vero 76
Yellow fever virus (YFV) [33] = assay: microbe, parasite or virus in culture; settings: Huh-7
[34] = test system: Venezuelan equine encephalitis virus (VEEV); assay: microbe, parasite or virus in culture; settings: Vero 76
Zika virus [35] = assay: microbe, parasite or virus in culture; settings: Vero 76
influenza A(H1N1) [36] = assay: microbe, parasite or virus in culture; settings: H1N1, MDCK
influenza A(H5N1) [37] = assay: microbe, parasite or virus in culture; settings: H5N1, MDCK
Influenza B [38] = assay: microbe, parasite or virus in culture; settings: MDCK
RSV [39] = assay: microbe, parasite or virus in culture; settings: human respiratory syncytial virus, MA104
HCMV AD169 = assay: HCMV plaque reduction assay, MRC-5 cells, strain AD169; type: cell-based, Human cytomegalovirus; settings: hCMV AD169, MRC5 cells, plaque assay, 6-days duration
HFF cells = assay: Cell proliferation assay, human foreskin fibroblast (HFF) cells; type: cell-based; settings: 72 h, cell number
[40] = test system: BK virus (BKV), Gardner strain
[41] = test system: Human cytomegalovirus (HCMV), strain AD169; settings: for EC50 / EC90: drug concentration 0.048-150 μM
JC virus (JCV) [42] = test system: JC virus (JCV)
JC virus (JCV) [43] = assay: Secondary JCV assay (qPCR), COS7 cells; settings: secondary JCV assay, COS7 cells; for EC50 / EC90: 7 days, qPCR, test drug concentration 0.001-100 μM; for Activity: class by SI50
[44] = molecular target: T1, Inosine-5′-Monophosphate Dehydrogenase 2 (IMPDH2) (Homo sapiens, UniProt P12268); assay: IMPDH inhibitor screening assay (BioVision kit); type: biochemical; settings: IMPDH activity, colorimetric OD 450 nm
T1 construct: purchased BioVision (California, USA)

[45] = molecular target: T2, SARS-Cov2 RdRp (nsp12-nsp7-nsp8) (Severe acute respiratory syndrome coronavirus 2, UniProt P0DTD1); type: biochemical; settings: primer extension; analog at 100 uM, printed 100 mM
[46] = molecular target: T2, SARS-Cov2 RdRp (nsp12-nsp7-nsp8); type: biochemical; settings: after addition of GTP and CTP (third and fourth nucleotides)
[47] = molecular target: mitochondrial DNA polymerase (POLG1) (Homo sapiens, UniProt P54098); assay: Inhibition of mitochondrial DNA polymerase (POLG1)
mitochondrial DNA polymerase (POLG1), sequence (P54098 whole entry): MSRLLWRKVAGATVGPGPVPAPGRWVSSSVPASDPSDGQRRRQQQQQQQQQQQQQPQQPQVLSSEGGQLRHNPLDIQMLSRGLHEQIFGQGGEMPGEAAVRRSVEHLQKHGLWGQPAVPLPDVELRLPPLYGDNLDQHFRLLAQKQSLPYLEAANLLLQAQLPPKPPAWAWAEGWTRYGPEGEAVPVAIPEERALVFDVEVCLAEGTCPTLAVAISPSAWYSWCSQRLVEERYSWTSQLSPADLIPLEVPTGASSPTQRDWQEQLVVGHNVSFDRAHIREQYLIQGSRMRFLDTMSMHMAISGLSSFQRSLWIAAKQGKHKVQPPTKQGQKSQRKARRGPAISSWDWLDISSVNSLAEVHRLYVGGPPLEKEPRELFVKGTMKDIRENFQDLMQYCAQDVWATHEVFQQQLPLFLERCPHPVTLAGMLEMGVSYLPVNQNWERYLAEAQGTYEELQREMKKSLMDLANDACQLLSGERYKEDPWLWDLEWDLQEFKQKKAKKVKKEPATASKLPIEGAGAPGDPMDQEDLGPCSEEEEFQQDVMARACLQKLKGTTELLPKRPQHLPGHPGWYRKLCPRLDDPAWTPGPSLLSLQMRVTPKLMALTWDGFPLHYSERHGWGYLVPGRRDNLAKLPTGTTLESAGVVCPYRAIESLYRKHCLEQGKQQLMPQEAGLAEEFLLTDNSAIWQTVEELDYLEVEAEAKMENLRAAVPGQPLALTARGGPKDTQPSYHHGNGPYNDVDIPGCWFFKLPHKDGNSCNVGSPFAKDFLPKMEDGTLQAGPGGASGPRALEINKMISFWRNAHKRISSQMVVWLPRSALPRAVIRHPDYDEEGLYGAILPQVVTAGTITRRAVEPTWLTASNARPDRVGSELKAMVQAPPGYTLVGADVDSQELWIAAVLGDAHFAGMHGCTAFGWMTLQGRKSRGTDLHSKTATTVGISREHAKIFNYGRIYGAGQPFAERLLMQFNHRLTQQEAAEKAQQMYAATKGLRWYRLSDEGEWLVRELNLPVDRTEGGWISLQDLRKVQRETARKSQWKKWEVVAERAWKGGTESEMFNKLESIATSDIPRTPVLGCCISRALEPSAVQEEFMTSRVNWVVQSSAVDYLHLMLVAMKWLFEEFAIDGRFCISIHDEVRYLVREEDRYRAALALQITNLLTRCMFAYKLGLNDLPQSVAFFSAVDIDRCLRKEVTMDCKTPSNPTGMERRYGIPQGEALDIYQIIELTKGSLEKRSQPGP

[48] = Vero 76 cells without virus, test compounds

Nc1ccn([C@@H]2OC(CO)=C[C@H]2O)c(=O)n1 [AB21650, 3′-deoxy-3′,4′-didehydro cytidine]
SI (adenovirus-5 (Ad5) [1]; Ad5, SI = CC50/EC50): 0 | CC50 (adenovirus-5 (Ad5) [1]; human): > 2000 µM | CC50 (TCRV [2]; African green monkey): > 2000 µM | SI (TCRV [2]; TCRV, SI = CC50/EC50): 0 | SI ([3]; RVFV, SI = CC50/EC50): 0 | CC50 [3, 48]: > 2000 µM | SI (SARS-CoV [4]; SARS-CoV, SI = CC50/EC50): 0 | CC50 (SARS-CoV [4]; [48]): > 2000 µM | SI (SARS-CoV-2 [5]): 0 | SI (dengue virus-2 (DV-2) [6]): 0 | CC50 ([7]; African green monkey): > 2000 µM | SI ([7]; JEV, SI = CC50/EC50): 0 | SI (Powassan virus (POWV) [8]): 0 | CC50 (West Nile virus (WNV) [9]; African green monkey): > 2000 µM | SI (West Nile virus (WNV) [9]; WNV, SI = CC50/EC50): 0 | CC50 (Yellow fever virus (YFV) [10]; Huh7 cells without virus, test compounds): > 2000 µM | SI (Yellow fever virus (YFV) [10]; YFV, SI = CC50/EC50): 0 | SI ([11]; VEEV, SI = CC50/EC50): 0 | CC50 [11, 48]: > 2000 µM | CC50 (Zika virus [12]; African green monkey): > 2000 µM | SI (Zika virus [12]; Zika, SI = CC50/EC50): 0 | SI (influenza A(H1N1) [13]; H1N1): 0 | CC50 (influenza A(H1N1) [13]; dog): > 2000 µM | CC50 (influenza A(H5N1) [14]; MDCK cells without virus, test compounds): > 2000 µM | SI (influenza A(H5N1) [14]; influenza A(H5N1), SI = CC50/EC50): 0 | SI (Influenza B [15]): 0 | CC50 (Influenza B [15]; dog): > 2000 µM | CC50 (RSV [16]; African green monkey): > 2000 µM | SI (RSV [16]; RSV, SI = CC50/EC50): 0 | SI (poliovirus-1 (POV-1) [17]; POV-1, SI = CC50/EC50): 0 | CC50 (poliovirus-1 (POV-1) [17]; [48]): > 2000 µM | SI (enterovirus-68 (EV-68) [18]; EV-68, SI = CC50/EC50): 2 | CC50 (enterovirus-68 (EV-68) [18]; human): 1800 µM | CC50 (in vitro [19]): > 2000 µM | CC50 (in vitro [20]): > 2000 µM | CC50 (in vitro [21]): > 2000 µM | EC50 (adenovirus-5 (Ad5) [22]): > 2000 µM | EC50 (poliovirus-1 (POV-1) [23]): > 2000 µM | EC50 (enterovirus-68 (EV-68) [24]): 910 µM | EC50 (TCRV [25]): > 2000 µM | EC50 [26]: > 2000 µM | EC50 (SARS-CoV [27]): > 2000 µM | EC50 (SARS-CoV-2 [28]): > 2000 µM | EC50 (dengue virus-2 (DV-2) [29]): > 2000 µM | EC50 [30]: > 2000 µM | EC50 (Powassan virus (POWV) [31]): > 2000 µM | EC50 (West Nile virus (WNV) [32]): > 2000 µM | EC50 (Yellow fever virus (YFV) [33]): > 2000 µM | EC50 [34]: > 2000 µM | EC50 (Zika virus [35]): > 2000 µM | EC50 (influenza A(H1N1) [36]): > 2000 µM | EC50 (influenza A(H5N1) [37]): > 2000 µM | EC50 (Influenza B [38]): > 2000 µM | EC50 (RSV [39]): > 2000 µM

CCC(CC)COC(=O)[C@H](C)N[P@](=O)(OCC1=CC(O)C(n2ccc(=O)[nH]c2=O)O1)Oc1ccccc1 (stereo partly drawn) [AB23031]
EC50 (HCMV AD169): > 100 µM | IC50 (HFF cells): > 100 µM | Activity [40]: HI (key: NA (Not Active) SI50 = 0-3.9; LO (Slightly Active) SI50 = 4-9.9; MOD (Moderately Active) SI50 = 10-19.9; HI (Highly Active) SI50 = ≥20) | CC50 [40]: > 150 µM | EC50 [40]: 5.12 µM | EC90 [40]: > 150 µM | activity against BK virus (in words) [40]: highly active | Activity [41]: HI (key: NA (Not Active) SI50 = 0-3.9; LO (Slightly Active) SI50 = 4-9.9; MOD (Moderately Active) SI50 = 10-19.9; HI (Highly Active) SI50 = ≥20) | CC50 [41]: > 150 µM | activity against hCMV (in words) [41]: highly active | EC50 [41]: 0.15 µM | EC90 [41]: > 150 µM | CC50 (MRC-5 cells): > 100 µM | CC50 (MOLT-3 cells): 55.4 µM | CC50 (JC virus (JCV) [42]): > 100 µM | EC50 (JC virus (JCV) [43]): 93.8 µM | EC90 (JC virus (JCV) [43]): > 100 µM | Activity (JC virus (JCV) [43]): NA (NA (Not Active) SI50 = 0-3.9)

CCC(CC)COC(=O)[C@H](C)N[P@](=O)(OCC1=CC(O)C(n2cnc3c(=O)[nH]c(N)nc32)O1)Oc1ccccc1 (stereo partly drawn) [AB23032]
EC50 (HCMV AD169): > 100 µM | Activity [40]: NA (key: NA (Not Active) SI50 = 0-3.9; MOD (Moderately Active) SI50 = 4-9.9; HI (Highly Active) SI50 = ≥10) | CC50 [40]: > 150 µM | EC50 [40]: 77.2 µM | EC90 [40]: 149 µM | Activity [41]: NA (key: NA (Not Active) SI50 = 0-3.9; MOD (Moderately Active) SI50 = 4-9.9; HI (Highly Active) SI50 = ≥10) | CC50 [41]: > 150 µM | EC50 [41]: > 150 µM | EC90 [41]: > 150 µM | CC50 (MRC-5 cells): > 100 µM | CC50 (JC virus (JCV) [42]): > 100 µM | EC50 (JC virus (JCV) [43]): > 100 µM | EC90 (JC virus (JCV) [43]): > 100 µM | Activity (JC virus (JCV) [43]): NA (NA (Not Active) SI50 = 0-3.9)

NC(=O)c1ncn([C@@H]2O[C@H](COP(=O)(O)O)[C@@H](O)[C@H]2O)n1 [RMP, Ribavirin 5′-monophosphate]
IC50 [44]: 2.6 ± 1.8 µM

O=c1ccn(C2OC(COP(=O)(O)OP(=O)(O)OP(=O)(O)O)=CC2O)c(=O)[nH]1 (stereo not drawn) [ddhUTP, 3′-deoxy-3,4-didehydro-UTP]
incorporation into RNA by SARS-Cov2 RdRp (in words) [45]: incorporated onto RNA as UTP analog | chain termination of RNA synthesis (in words) [46]: caused chain termination of RNA synthesis | substrate for POLG1 (in words) [47]: poor substrates
